From EP4800015A1, “AZABICYCLO DERIVATIVE AND PREPARATION METHOD THEREFOR, AND USE” (Zhejiang Hisun Pharmaceutical Co., Ltd., priority 2023, dated 2025) come the findings set out here.

The term IC50 denotes the concentration that inhibits the measured activity by half.

In one experiment the test system is SW48 cells. The experiment in a line: Inhibition of SW48 cell proliferation (CellTiter-Glo). The class given is cell-based. The following applies: Homo sapiens; SW48 cells (MSI-H), 120 hours. Put shortly:
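SW48 (MSI-H) cells in L-15 with 10% FBS were seeded at 500 per well, cultured overnight at 37 °C, then exposed to compound at final concentrations of 10000 nM to 1.52 nM for 120 h. Viability was read by CellTiter-Glo luminescence, with inhibition relative to 0.1% DMSO. IC50 from nonlinear regression of log concentration versus inhibition.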

The target of a further experiment is T1, recombinant human WRN (Homo sapiens, UniProt Q14191).
T1 construct: purchased BPS 101264
T1 sequence (Q14191 whole entry): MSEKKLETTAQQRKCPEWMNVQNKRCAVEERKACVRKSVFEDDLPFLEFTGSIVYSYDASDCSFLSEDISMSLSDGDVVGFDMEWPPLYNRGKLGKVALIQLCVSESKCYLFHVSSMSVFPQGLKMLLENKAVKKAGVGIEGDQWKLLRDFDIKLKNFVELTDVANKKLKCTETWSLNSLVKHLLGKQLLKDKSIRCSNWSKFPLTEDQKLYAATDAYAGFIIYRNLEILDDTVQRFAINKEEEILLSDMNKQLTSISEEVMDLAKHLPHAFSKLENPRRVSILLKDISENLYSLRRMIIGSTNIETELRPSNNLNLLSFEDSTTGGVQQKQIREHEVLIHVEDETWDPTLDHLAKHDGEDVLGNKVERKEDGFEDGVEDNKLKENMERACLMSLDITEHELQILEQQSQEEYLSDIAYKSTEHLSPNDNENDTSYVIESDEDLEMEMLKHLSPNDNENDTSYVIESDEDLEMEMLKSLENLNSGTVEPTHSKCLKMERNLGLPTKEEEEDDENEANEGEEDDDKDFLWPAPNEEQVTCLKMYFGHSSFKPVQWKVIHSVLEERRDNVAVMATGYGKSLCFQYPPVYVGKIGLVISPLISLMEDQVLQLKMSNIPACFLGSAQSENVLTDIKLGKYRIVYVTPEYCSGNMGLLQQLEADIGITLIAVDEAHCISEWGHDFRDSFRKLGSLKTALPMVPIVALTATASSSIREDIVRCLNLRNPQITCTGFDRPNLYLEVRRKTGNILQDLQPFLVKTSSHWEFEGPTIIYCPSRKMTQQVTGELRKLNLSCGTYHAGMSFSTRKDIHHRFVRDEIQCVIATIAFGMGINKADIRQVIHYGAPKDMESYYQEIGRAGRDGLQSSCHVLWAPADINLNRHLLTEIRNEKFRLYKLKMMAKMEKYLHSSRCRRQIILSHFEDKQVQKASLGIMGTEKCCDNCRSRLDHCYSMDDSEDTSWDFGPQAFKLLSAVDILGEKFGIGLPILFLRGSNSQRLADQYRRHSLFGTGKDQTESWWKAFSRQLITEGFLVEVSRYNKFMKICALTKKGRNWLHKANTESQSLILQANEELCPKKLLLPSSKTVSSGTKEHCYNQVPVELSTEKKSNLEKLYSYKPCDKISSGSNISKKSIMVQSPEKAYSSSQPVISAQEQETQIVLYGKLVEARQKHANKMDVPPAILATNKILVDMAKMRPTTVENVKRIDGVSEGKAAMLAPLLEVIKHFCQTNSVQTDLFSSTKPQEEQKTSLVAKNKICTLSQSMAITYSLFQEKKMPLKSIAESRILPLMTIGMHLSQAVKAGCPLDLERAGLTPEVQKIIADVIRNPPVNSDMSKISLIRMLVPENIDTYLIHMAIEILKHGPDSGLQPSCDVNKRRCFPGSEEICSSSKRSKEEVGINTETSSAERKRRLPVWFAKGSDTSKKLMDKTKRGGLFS
The experiment is described as follows: Inhibition of WRN enzyme activity (ATPase), ADP-Glo Kinase Assay. The following applies: WRN protein 5 nM, Flap 0.1 nM, ATP 30 µM; read-out: IC50. The class given is biochemical. The gist of the method:
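ATPase activity was measured by ADP-Glo luminescence after a 10-min room-temperature reaction with 30 µM ATP and 0.1 nM Flap26 oligonucleotide substrate. The 5 nM WRN had first been exposed to compound (0.004–1000 nM) for 15 min in pH 7.5 Tris buffer with 2 mM MgCl2. IC50 values came from log-concentration regression against the DMSO control.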
On the technique in general: In ADP-Glo the light output rises with the ADP produced.

Another experiment deals with RL95-2 cells. The experiment is described as follows: Inhibition of RL95-2 cell proliferation (CellTiter-Glo). The experiment is classed as cell-based. As to conditions: Homo sapiens; RL95-2 cells (MSI-H), 120 hours. Put shortly: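 Proliferation IC50 derived by nonlinear regression of % inhibition against log concentration, with 0.1% DMSO wells as reference. CellTiter-Glo luminescence was read after 120 h of compound exposure (10000 nM down to 1.52 nM final) at 37 °C. MSI-H RL95-2 cells seeded at 500/well in DMEM/F12 with 10% FBS the day before.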
(In ATP-based viability assays light output follows the ATP content of the culture.)

Where only a bound is given, the exact number is not on record here.

As to `CCc1c(N2CCN(C(=O)c3ncnc(C)c3O)CC2)c(=O)n2nc(-c3cccc4c3OCC4)nc2n1CC(=O)Nc1ccc(C(F)(F)F)cc1Cl` [Example 154, N-(2-chloro-4-(trifluoromethyl)phenyl)-2-(2-(2,3-dihydrobenzofuran-7-yl)-5-ethyl-6-(4-(5-hydroxy-6-methylpyrimidine-4-carbonyl)piperazin-1-yl)-7-oxo-[1,2,4]triazolo[1,5-a]pyrimidin-4(7H)-yl)acetamide], the IC50 in the experiment with SW48 cells, at recombinant human WRN and in the experiment on RL95-2 cells was 1 to 100 nM in each case.
Regarding `CCc1c(N2CCN(C(=O)c3ncnc(C)c3O)CC2)c(=O)n2nc(-c3ccc4cn[nH]c4c3)nc2n1CC(=O)Nc1ccc(C(F)(F)F)cc1Cl` [Example 156, N-(2-chloro-4-(trifluoromethyl)phenyl)-2-(5-ethyl-6-(4-(5-hydroxy-6-methylpyrimidine-4-carbonyl)piperazin-1-yl)-2-(1H-indazol-6-yl)-7-oxo-[1,2,4]triazolo[1,5-a]pyrimidin-4(7H)-yl)acetamide], the IC50 in the experiment with SW48 cells, at recombinant human WRN and in the experiment on RL95-2 cells was 1 to 100 nM in each case.
As to `CCc1c(N2CCN(C(=O)c3ncnc(C)c3O)CC2)c(=O)n2nc(-c3ccc4c(c3)NCCO4)nc2n1CC(=O)Nc1ccc(C(F)(F)F)cc1Cl` [Example 157, N-(2-chloro-4-(trifluoromethyl)phenyl)-2-(2-(3,4-dihydro-2H-benzo[b][1,4]oxazin-6-yl)-5-ethyl-6-(4-(5-hydroxy-6-methylpyrimidine-4-carbonyl)piperazin-1-yl)-7-oxo-[1,2,4]triazolo[1,5-a]pyrimidin-4(7H)-yl)acetamide], the IC50 with SW48 cells, on recombinant human WRN and with RL95-2 cells was 1 to 100 nM each time.
In the case of `CCc1c(N2CCN(C(=O)c3ncnc(C)c3O)CC2)c(=O)n2nc(C3=CCCCOC3)nc2n1CC(=O)Nc1ccc(S(F)(F)(F)(F)F)cc1C` [Example 158, 2-(5-ethyl-6-(4-(5-hydroxy-6-methylpyrimidine-4-carbonyl)piperazin-1-yl)-7-oxo-2-(2,5,6,7-tetra hydrooxepin-3-yl)-[1,2,4]triazolo[1,5-a]pyrimidin-4(7H)-yl)-N-(2-methyl-4-(pentafluoro-λ^6-sulfaneyl)phenyl)acetamide], the 50% inhibitory concentration (IC50) with SW48 cells, at recombinant human WRN and in the experiment on RL95-2 cells was 1 to 100 nM each time.
Regarding `CCc1c(N2CCN(C(=O)c3ncccc3O)CC2)c(=O)n2nc(C3=CC4COCC4C3)nc2n1CC(=O)Nc1ccc(C(F)(F)F)cc1Cl` (stereo not drawn) [Example 159, N-(2-chloro-4-(trifluoromethyl)phenyl)-2-(5-ethyl-6-(4-(3-hydroxypicolinoyl)piperazin-1-yl)-7-oxo-2-(3,3a,4,6a-tetrahydro-1H-cyclopenta[c]furan-5-yl)-[1,2,4]triazolo[1,5-a]pyrimidin-4(7H)-yl) acetamide], the IC50 in the experiment on SW48 cells, at recombinant human WRN and in the experiment with RL95-2 cells was 1 to 100 nM throughout.
Turning to `CCc1c(N2CCN(C(=O)c3ncnc(C)c3O)CC2)c(=O)n2nc(C3=CC4COCC4C3)nc2n1CC(=O)Nc1ccc(C(F)(F)F)cc1Cl` (stereo not drawn) [Example 161, N-(2-chloro-4-(trifluoromethyl)phenyl)-2-(5-ethyl-6-(4-(5-hydroxy-6-methylpyrimidine-4-carbonyl)piperazin-1-yl)-7-oxo-2-(3,3a,4,6a-tetrahydro-1H-cyclopenta[c]furan-5-yl)-[1,2,4]triazolo[1,5-a]pyrimidin-4(7H)-yl)acetamide], the 50% inhibitory concentration (IC50) in the experiment on SW48 cells, at recombinant human WRN and in the experiment with RL95-2 cells was 1 to 100 nM in each case.
Consider `CCc1c(N2CCN(C(=O)c3ncnc(C)c3O)CC2)c(=O)n2nc(-c3cnc4c(c3)CCO4)nc2n1CC(=O)Nc1ccc(C(F)(F)F)cc1Cl` [Example 162, N-(2-chloro-4-(trifluoromethyl)phenyl)-2-(2-(2,3-dihydrofuro[2,3-b]pyridin-5-yl)-5-ethyl-6-(4-(5-hydroxy-6-methylpyrimidine-4-carbonyl)piperazin-1-yl)-7-oxo-[1,2,4]triazolo[1,5-a]pyrimidin-4 (7H)-yl)acetamide], for which the IC50 in the experiment on SW48 cells, on recombinant human WRN and in the experiment on RL95-2 cells was 1 to 100 nM throughout.
Regarding `CCc1c(N2CCN(C(=O)c3ncnc(C)c3O)CC2)c(=O)n2nc(C3=CC4CC(OC)CC4C3)nc2n1CC(=O)Nc1ccc(C(F)(F)F)cc1Cl` (stereo not drawn) [Example 163, N-(2-chloro-4-(trifluoromethyl)phenyl)-2-(5-ethyl-6-(4-(5-hydroxy-6-methylpyrimidine-4-carbonyl)piperazin-1-yl)-2-(5-methoxy-1,3a,4,5,6,6a-hexahydropentalen-2-yl)-7-oxo-[1,2,4]triazolo[1,5-a]pyrimidin-4(7H)-yl)acetamide], the IC50 in the experiment with SW48 cells, on recombinant human WRN and in the experiment on RL95-2 cells was 1 to 100 nM in each case.
Regarding `CCc1c(N2CCN(C(=O)c3ncccc3O)CC2)c(=O)n2nc(C3=CC4CC(C)(O)CC4C3)nc2n1CC(=O)Nc1ccc(C(F)(F)F)cc1Cl` (stereo not drawn) [Example 164, N-(2-chloro-4-(trifluoromethyl)phenyl)-2-(5-ethyl-2-(5-hydroxy-5-methyl-1,3a,4,5,6,6a-hexahydropentalen-2-yl)-6-(4-(3-hydroxypicolinoyl)piperazin-1-yl)-7-oxo-[1,2,4]triazolo[1,5-a]pyrimidin-4(7H)-yl)acetamide], the IC50 with SW48 cells, on recombinant human WRN and in the experiment on RL95-2 cells was 1 to 100 nM throughout.
Take `CCc1c(N2CCN(C(=O)c3ncccc3O)CC2)c(=O)n2nc(C3=CC4CC(O)CC4C3)nc2n1CC(=O)Nc1ccc(S(F)(F)(F)(F)F)cc1` (stereo not drawn) [Example 178, 2-(5-ethyl-2-(5-hydroxy-1,3a,4,5,6,6a-hexahydropentalen-2-yl)-6-(4-(3-hydroxypicolinoyl)piperazin-1-yl)-7-oxo-[1,2,4]triazolo[1,5-a]pyrimidin-4(7H)-yl)-N-(4-(pentafluoro-λ^6-sulfaneyl)phenyl) acetamide]: the IC50 was 1 to 100 nM with SW48 cells, below 1 nM on recombinant human WRN and 1 to 100 nM in the experiment with RL95-2 cells.
In the case of `CCc1c(N2CCN(C(=O)c3ncnc(C)c3O)CC2)c(=O)n2nc(-c3ccc4c(ccn4CC)c3)nc2n1CC(=O)Nc1ccc(C(F)(F)F)cc1Cl` [Example 183, N-(2-chloro-4-(trifluoromethyl)phenyl)-2-(5-ethyl-2-(1-ethyl-1H-indol-5-yl)-6-(4-(5-hydroxy-6-methylpyrimidine-4-carbonyl)piperazin-1-yl)-7-oxo-[1,2,4]triazolo[1,5-a]pyrimidin-4(7H)-yl)ace tamide], the IC50 with SW48 cells, on recombinant human WRN and with RL95-2 cells was 1 to 100 nM in each case.
For `CCc1c(N2CCN(C(=O)c3ncnc(C)c3O)CC2)c(=O)n2nc(-c3ccc4c(ccn4C(C)C)c3)nc2n1CC(=O)Nc1ccc(C(F)(F)F)cc1Cl` [Example 184, N-(2-chloro-4-(trifluoromethyl)phenyl)-2-(5-ethyl-6-(4-(5-hydroxy-6-methylpyrimidine-4-carbonyl)piperazin-1-yl)-2-(1-isopropyl-1H-indol-5-yl)-7-oxo-[1,2,4]triazolo[1,5-a]pyrimidin-4(7H)-yl) acetamide], the IC50 with SW48 cells, on recombinant human WRN and in the experiment with RL95-2 cells was 1 to 100 nM each time.
In the case of `[2H]C([2H])([2H])n1ccc2cc(-c3nc4n(CC(=O)Nc5ccc(C(F)(F)F)cc5Cl)c(CC)c(N5CCN(C(=O)c6ncnc(C)c6O)CC5)c(=O)n4n3)ccc21` [Example 185, N-(2-chloro-4-(trifluoromethyl)phenyl)-2-(5-ethyl-6-(4-(5-hydroxy-6-methylpyrimidine-4-carbonyl)piperazin-1-yl)-2-(1-(methyl-d3)-1H-indol-5-yl)-7-oxo-[1,2,4]triazolo[1,5-a]pyrimidin-4(7H)-yl)acetamide], the IC50 in the experiment with SW48 cells, at recombinant human WRN and with RL95-2 cells was 1 to 100 nM each time.
For `CCc1c(N2CCN(C(=O)c3ncccc3O)CC2)c(=O)n2nc(C3=CC4CC(OC)CC4C3)nc2n1CC(=O)Nc1ccc(C(F)(F)F)cc1Cl` (stereo not drawn) [Example 186, N-(2-chloro-4-(trifluoromethyl)phenyl)-2-(5-ethyl-6-(4-(3-hydroxypicolinoyl)piperazin-1-yl)-2-(5-methoxy-1,3a,4,5,6,6a-hexahydropentalen-2-yl)-7-oxo-[1,2,4]triazolo[1,5-a]pyrimidin-4(7H)-yl)acetamide], the IC50 in the experiment with SW48 cells, on recombinant human WRN and with RL95-2 cells was 1 to 100 nM in each case.
On to `CCc1c(N2CCN(C(=O)c3nccc(Cl)c3O)CC2)c(=O)n2nc(C3=CC4COCC4C3)nc2n1CC(=O)Nc1ccc(C(F)(F)F)cc1Cl` (stereo not drawn) [Example 188, 2-(6-(4-(4-chloro-3-hydroxypicolinoyl)piperazin-1-yl)-5-ethyl-7-oxo-2-(3,3a,4,6a-tetrahydro-1H-cyclopenta[c]furan-5-yl)-[1,2,4]triazolo[1,5-a]pyrimidin-4(7H)-yl)-N-(2-chloro-4-(trifluoromethyl)phenyl)acetamide], for which the half-inhibitory concentration (IC50) in the experiment on SW48 cells, at recombinant human WRN and in the experiment with RL95-2 cells was 1 to 100 nM in each case.
